In publication PMC8151276, “An Integrated Approach toward NanoBRET Tracers for Analysis of GPCR Ligand Engagement” (Molecules, 2021):

How the values were obtained:
[1] = system: alpha-Adrenergic receptors; experiment: Competitive displacement of Clozapine-a-2-NB590 by unmodified scaffold (NanoBRET); format: binding, human; conditions: for Interaction verified via competitive displacement of tracer: tracer Clozapine-a-2-NB590, alpha-Adrenergic receptors; for NanoBRET Fold Response, other tracers/XAC (unmodified): displaced by unmodified XAC
Procedure: Finally, we opted to compare the machine learning predictions for the 17 scaffolds to the empirical NanoBRET evaluations across 36 GPCR families investigated by both strategies (Figure 7). […] At the same time, empirical NanoBRET results for each scaffold were consolidated to include results for all relevant fluorescent tracer candidates screened at either 1 μM or 0.1 μM tracer concentrations. […] These additional verifications were incorporated to the comparative analysis and are also included in the compiled screening results (Supplementary Materials Excel spreadsheet).

[2] = system: 5-Hydroxytryptamine receptors; experiment: as above; format: binding, human; conditions: tracer Clozapine-a-2-NB590
Source text: (§1) Finally, we opted to compare the machine learning predictions for the 17 scaffolds to the empirical NanoBRET evaluations across 36 GPCR families investigated by both strategies (Figure 7). The highest correlation between model-predicted and NanoBRET-confirmed interactions was found using minimal thresholds of ≥4% classification probability and ≥1.5-fold response, respectively (Figure S11). These thresholds provided the best balance between model accuracy and a low percentage of false predictions. Accordingly, machine learning predictions for all unmodified scaffolds were compiled (Figure S6) and those above the minimum 4% probability threshold were classified as positive interactions (Figure 7A). At the same time, empirical NanoBRET results for each scaffold were consolidated to include results for all relevant fluorescent tracer candidates screened at either 1 μM or 0.1 μM tracer concentrations. […] One caveat comparing model predictions to empirical NanoBRET evaluations is their use of unmodified versus fluorescently modified scaffolds, respectively. Therefore, model predictions not verified by BRET could in part be the result of fluorophore interference with binding interactions. […]

Dopamine receptors = experiment: as above; format: binding, human; conditions: tracer Clozapine-a-2-NB590
Source text: as §1

ADRB1 = biological target: T1, ADRB1 (Homo sapiens, UniProt P08588); experiment: NanoBRET screen HiBiT-ADRB1 in HEK293; format: binding; conditions: ADRB1
T1 construct: purchased Promega (in-house HiBiT-GPCR construct library, NanoBRET)

ADRB2 = biological target: T2, ADRB2 (Homo sapiens, UniProt P07550); experiment: NanoBRET screen HiBiT-ADRB2 in HEK293; format: binding; conditions: ADRB2, other tracers/Quetiapine (unmodified)
T2 construct: purchased Promega (in-house HiBiT-GPCR construct library, NanoBRET)
Procedure: (§2) Each tracer candidate was screened across the entire library of HiBiT-GPCR constructs using NanoBRET as the detection modality. As depicted in Figure 4A, the specificity of interactions was evaluated through decrease in BRET due to competitive displacement of a bound tracer by excess parental compound. Each tracer was analyzed for binding to each HiBiT-GPCR fusion in the absence and in the presence of competing parental compound. Briefly, HEK293 cells were transfected with HiBiT-GPCR constructs diluted into promoterless DNA to reduce expression and maximize translocation to the cell surface. Each tracer candidate was then screened at concentrations of 1 μM and 0.1 μM across cells expressing these fusions. Cells were treated for 1.5 h with tracer either alone or in the presence of 20 μM competing parental compound (i.e., control). BRET was measured upon addition of purified LgBiT and subsequent complementation with HiBiT genetically fused to a GPCR. The specificity of interactions was assessed through a decrease in BRET signal due to competitive displacement of the bound tracer. To further gauge the robustness of these interactions, the fold response over the control (i.e., BRETtracer/BRETcontrol) was calculated. We chose a 1.5-fold response, which translates to ≥7-fold signal over noise as the minimal threshold required to score an interaction as positive.
(§3) HiBiT-GPCR DNA constructs were diluted in 10 mM Tris pH 8 to a final concentration of 0.01 μg/μL, arrayed in 96-well plates and stored at −20 °C. For transfection, HEK293 cells were suspended in Opti-MEM (without phenol red) supplemented with 2% fetal bovine serum (Seradigm) and 100 units/mL penicillin–streptomycin (Gibco) at a final concentration of 220,000 cells/mL and dispensed into white 96-well plates at 90 μL/well. Subsequent transfections and screens were carried using an Agilent Bravo Automated Liquid Handling Platform. First, the 96-well HiBiT DNA arrays were diluted 25-fold in Opti-MEM (without serum or phenol red) to a final concentration of 0.0004 μg/μL and 20 μL of the diluted DNAs were transferred into new 96-well plates. Next, promoterless carrier DNA (1 μg/μL) was diluted 25-fold (0.04 μg/μL) and then dispensed into the diluted arrays at 20 μL/well. Following brief mixing, Viafect transfection reagent (Promega) diluted 16-fold into Opti-MEM was dispensed into the plates at 40 μL/well. After mixing by pipetting, plates were incubated for 10 min on the pipetting station deck. The DNA-transfection reagent complexes were then added to plates containing cells. To facilitate the screen, 10 μL of DNA-transfection reagent complexes were added in duplicates to the top 4 and bottom 4 rows, resulting in two identical 48-well arrays per plate. Plates with transfected cells were incubated for 18–20 h at 37 °C/5% CO2. A screen of each tracer across the entire library using two different concentrations requires duplicate plates of transfected cells. Depending on the number of tracers being screened, transfections can be scaled up using the same ratios. The next day, for each tracer, four 20× screening solutions in tracer dilution buffer (Promega) were prepared: two duplicates at final concentration of 20 μM and two duplicates at a final concentration of 2 μM. […] The four resulting solutions were diluted 4-fold in Opti-MEM without serum or phenol red to generate 5× solutions (5 µM and 0.5 µM tracer +/− 100 μM competing compound). To screen the library, a BioTek MultiFlo FX liquid dispenser was used to dispense 22.5 µL of tracer solution to the top 4 rows and 22.5 µL tracer + competing compound solution to the 4 bottom rows. Plates were briefly mixed on an orbital shaker and incubated for 1.5 h at room temperature. […] Plates were briefly mixed on an orbital shaker and incubated for 15 min to allow complementation.

ADRB3 = biological target: T3, ADRB3 (Homo sapiens, UniProt P13945); experiment: NanoBRET screen HiBiT-ADRB3 in HEK293; format: binding; conditions: ADRB3
T3 construct: purchased Promega (in-house HiBiT-GPCR construct library, NanoBRET)
Procedure: as §2, §3

OPRD1 = biological target: T4, OPRD1 (Homo sapiens, UniProt P41143); experiment: NanoBRET screen HiBiT-OPRD1 in HEK293; format: binding; conditions: OPRD1
T4 construct: purchased Promega (in-house HiBiT-GPCR construct library, NanoBRET)
Procedure: as §2, §3

OPRK1 = biological target: T5, OPRK1 (Homo sapiens, UniProt P41145); experiment: NanoBRET screen HiBiT-OPRK1 in HEK293; format: binding; conditions: OPRK1
T5 construct: purchased Promega (in-house HiBiT-GPCR construct library, NanoBRET)
Procedure: as §2, with “positive. […]. Below we highlight the screening results obtained for our exemplary fluorescent tracers based on Clozapine, Amitriptyline and AZD1283.” for “positive.”
HiBiT-GPCR DNA constructs were diluted in 10 mM Tris pH 8 to a final concentration of 0.01 μg/μL, arrayed in 96-well plates and stored at −20 °C. For transfection, HEK293 cells were suspended in Opti-MEM (without phenol red) supplemented with 2% fetal bovine serum (Seradigm) and 100 units/mL penicillin–streptomycin (Gibco) at a final concentration of 220,000 cells/mL and dispensed into white 96-well plates at 90 μL/well. Subsequent transfections and screens were carried using an Agilent Bravo Automated Liquid Handling Platform. First, the 96-well HiBiT DNA arrays were diluted 25-fold in Opti-MEM (without serum or phenol red) to a final concentration of 0.0004 μg/μL and 20 μL of the diluted DNAs were transferred into new 96-well plates. Next, promoterless carrier DNA (1 μg/μL) was diluted 25-fold (0.04 μg/μL) and then dispensed into the diluted arrays at 20 μL/well. Following brief mixing, Viafect transfection reagent (Promega) diluted 16-fold into Opti-MEM was dispensed into the plates at 40 μL/well. After mixing by pipetting, plates were incubated for 10 min on the pipetting station deck. The DNA-transfection reagent complexes were then added to plates containing cells. To facilitate the screen, 10 μL of DNA-transfection reagent complexes were added in duplicates to the top 4 and bottom 4 rows, resulting in two identical 48-well arrays per plate. Plates with transfected cells were incubated for 18–20 h at 37 °C/5% CO2. A screen of each tracer across the entire library using two different concentrations requires duplicate plates of transfected cells. Depending on the number of tracers being screened, transfections can be scaled up using the same ratios. The next day, for each tracer, four 20× screening solutions in tracer dilution buffer (Promega) were prepared: two duplicates at final concentration of 20 μM and two duplicates at a final concentration of 2 μM. A competing unmodified compound was added to one of each duplicate at a final concentration of 400 μM. The four resulting solutions were diluted 4-fold in Opti-MEM without serum or phenol red to generate 5× solutions (5 µM and 0.5 µM tracer +/− 100 μM competing compound). To screen the library, a BioTek MultiFlo FX liquid dispenser was used to dispense 22.5 µL of tracer solution to the top 4 rows and 22.5 µL tracer + competing compound solution to the 4 bottom rows. Plates were briefly mixed on an orbital shaker and incubated for 1.5 h at room temperature. […]

OPRM1 = biological target: T6, OPRM1 (Homo sapiens, UniProt P35372); experiment: NanoBRET screen HiBiT-OPRM1 in HEK293; format: binding; conditions: OPRM1
T6 construct: purchased Promega (in-house HiBiT-GPCR construct library, NanoBRET)
Procedure: as §2, §3

[3] = other tracers/Quetiapine (unmodified), 0.1μM
[4] = other tracers/Quetiapine (unmodified), 1μM
[5] = other tracers/Tolterodine (unmodified), 0.1μM
[6] = other tracers/Tolterodine (unmodified), 1μM

T1 sequence (P08588 whole entry): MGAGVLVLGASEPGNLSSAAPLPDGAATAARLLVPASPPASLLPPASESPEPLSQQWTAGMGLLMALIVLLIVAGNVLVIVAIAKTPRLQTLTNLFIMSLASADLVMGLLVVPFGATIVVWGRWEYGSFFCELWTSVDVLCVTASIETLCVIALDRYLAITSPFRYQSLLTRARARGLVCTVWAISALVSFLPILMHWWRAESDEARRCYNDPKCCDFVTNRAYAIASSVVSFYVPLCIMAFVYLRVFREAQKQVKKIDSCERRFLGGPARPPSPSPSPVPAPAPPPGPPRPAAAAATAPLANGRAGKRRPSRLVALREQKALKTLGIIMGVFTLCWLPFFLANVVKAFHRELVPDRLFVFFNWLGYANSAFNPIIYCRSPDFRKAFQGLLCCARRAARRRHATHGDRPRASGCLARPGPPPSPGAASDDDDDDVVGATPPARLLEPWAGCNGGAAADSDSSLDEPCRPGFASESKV
T6 sequence (P35372 whole entry): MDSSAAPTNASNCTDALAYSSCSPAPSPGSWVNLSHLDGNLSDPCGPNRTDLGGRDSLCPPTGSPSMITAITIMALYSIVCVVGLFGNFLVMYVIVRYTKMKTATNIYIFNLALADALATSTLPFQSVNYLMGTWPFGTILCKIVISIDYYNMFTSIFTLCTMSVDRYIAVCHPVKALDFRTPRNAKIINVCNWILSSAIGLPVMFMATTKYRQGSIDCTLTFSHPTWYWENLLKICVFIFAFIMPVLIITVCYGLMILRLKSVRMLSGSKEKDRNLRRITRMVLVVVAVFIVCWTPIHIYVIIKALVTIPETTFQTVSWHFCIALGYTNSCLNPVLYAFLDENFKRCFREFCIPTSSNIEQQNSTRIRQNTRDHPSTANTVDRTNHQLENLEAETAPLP
T4 sequence (P41143 whole entry): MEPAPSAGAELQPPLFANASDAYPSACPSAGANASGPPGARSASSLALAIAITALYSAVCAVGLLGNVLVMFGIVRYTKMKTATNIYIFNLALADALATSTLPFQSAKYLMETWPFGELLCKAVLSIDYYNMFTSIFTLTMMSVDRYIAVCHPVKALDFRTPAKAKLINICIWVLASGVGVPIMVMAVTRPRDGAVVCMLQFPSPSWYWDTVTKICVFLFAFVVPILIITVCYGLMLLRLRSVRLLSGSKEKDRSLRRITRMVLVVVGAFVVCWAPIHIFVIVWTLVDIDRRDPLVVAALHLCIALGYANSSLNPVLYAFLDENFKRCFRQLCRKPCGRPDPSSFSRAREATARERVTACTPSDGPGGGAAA
T5 sequence (P41145 whole entry): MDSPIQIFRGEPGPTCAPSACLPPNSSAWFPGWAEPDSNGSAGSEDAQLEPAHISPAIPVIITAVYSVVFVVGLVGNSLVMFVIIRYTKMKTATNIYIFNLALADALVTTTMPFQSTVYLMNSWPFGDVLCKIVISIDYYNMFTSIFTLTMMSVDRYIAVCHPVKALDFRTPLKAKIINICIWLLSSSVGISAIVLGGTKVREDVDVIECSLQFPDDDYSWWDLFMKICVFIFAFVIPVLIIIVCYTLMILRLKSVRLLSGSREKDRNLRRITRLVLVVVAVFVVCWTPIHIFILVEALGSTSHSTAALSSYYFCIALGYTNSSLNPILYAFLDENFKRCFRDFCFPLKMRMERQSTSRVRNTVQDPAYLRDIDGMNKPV
T3 sequence (P13945 whole entry): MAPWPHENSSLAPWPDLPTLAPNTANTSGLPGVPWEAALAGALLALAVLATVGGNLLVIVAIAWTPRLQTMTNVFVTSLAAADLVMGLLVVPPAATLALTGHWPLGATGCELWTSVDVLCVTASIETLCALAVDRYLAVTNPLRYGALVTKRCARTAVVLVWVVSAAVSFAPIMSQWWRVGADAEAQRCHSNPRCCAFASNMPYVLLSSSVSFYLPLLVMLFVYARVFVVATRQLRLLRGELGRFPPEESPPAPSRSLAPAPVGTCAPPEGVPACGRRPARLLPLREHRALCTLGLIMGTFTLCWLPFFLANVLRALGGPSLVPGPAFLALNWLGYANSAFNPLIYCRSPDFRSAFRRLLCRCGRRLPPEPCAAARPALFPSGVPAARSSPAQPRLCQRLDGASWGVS
T2 sequence (P07550 whole entry): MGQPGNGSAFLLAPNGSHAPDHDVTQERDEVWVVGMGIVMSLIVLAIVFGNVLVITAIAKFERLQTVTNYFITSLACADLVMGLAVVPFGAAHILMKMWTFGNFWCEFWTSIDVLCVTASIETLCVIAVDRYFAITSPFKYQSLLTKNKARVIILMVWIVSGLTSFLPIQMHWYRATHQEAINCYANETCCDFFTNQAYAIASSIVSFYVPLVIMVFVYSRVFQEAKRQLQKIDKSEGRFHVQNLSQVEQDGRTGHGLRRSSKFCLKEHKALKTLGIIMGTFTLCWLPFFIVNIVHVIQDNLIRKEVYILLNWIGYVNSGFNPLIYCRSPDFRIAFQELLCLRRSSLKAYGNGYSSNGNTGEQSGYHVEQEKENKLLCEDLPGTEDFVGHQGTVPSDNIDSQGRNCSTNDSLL

With `N#CNC(=NCCCOc1cccc(CN2CCCCC2)c1)NCCNC(=O)c1ccc(N)cc1` [Aminopotentidine] the “Interaction verified via competitive displacement of tracer” value [1] was “verify additional interactions”, the “Interaction verified via competitive displacement of tracer” value [2] was “verify additional interactions” and the “Interaction verified via competitive displacement of tracer” value (Dopamine receptors) was “verify additional interactions”.

With `OCCOCCN1CCN(C2=Nc3ccccc3Sc3ccccc32)CC1` [Quetiapine (unmodified)] the “NanoBRET Fold Response” value (ADRB1; [3]) was 1.33, the “NanoBRET Fold Response” value (ADRB1; [4]) was 1.09 and the “NanoBRET Fold Response” value (ADRB2; 0.1μM) was 1.07. For the same compound, the “NanoBRET Fold Response” value (ADRB2; 1μM) was 1.33, the “NanoBRET Fold Response” value (ADRB3; [3]) was 1.11 and the “NanoBRET Fold Response” value (ADRB3; [4]) was 1.12. For the same compound, the “NanoBRET Fold Response” value (OPRD1; [3]) was 1.31, the “NanoBRET Fold Response” value (OPRD1; [4]) was 1.06 and the “NanoBRET Fold Response” value (OPRK1; [3]) was 1.76. The “NanoBRET Fold Response” value (OPRK1; [4]) was 0.99, the “NanoBRET Fold Response” value (OPRM1; [3]) was 1.29 and the “NanoBRET Fold Response” value (OPRM1; [4]) was 1.00.

`Cc1ccc(O)c([C@H](CCN(C(C)C)C(C)C)c2ccccc2)c1` [Tolterodine (unmodified)] was tested, and the “NanoBRET Fold Response” value (ADRB1; [5]) was 0.99, the “NanoBRET Fold Response” value (ADRB1; [6]) was 1.01 and the “NanoBRET Fold Response” value (ADRB3; [5]) was 1.01. The “NanoBRET Fold Response” value (OPRD1; [6]) was 0.91, the “NanoBRET Fold Response” value (OPRK1; [5]) was 0.99 and the “NanoBRET Fold Response” value (OPRK1; [6]) was 1.00. For the same compound, the “NanoBRET Fold Response” value (OPRM1; [5]) was 0.97.

`CCCn1c(=O)c2[nH]c(-c3ccc(OCC(=O)NCCN)cc3)nc2n(CCC)c1=O` [XAC (unmodified)] was tested, and the “NanoBRET Fold Response, other tracers/XAC (unmodified)” value ([1]; ADRA1A, other tracer 0.1μM) was 3.51, the “NanoBRET Fold Response, other tracers/XAC (unmodified)” value ([1]; ADRA1A, other tracer 1μM) was 1.56 and the “NanoBRET Fold Response, other tracers/XAC (unmodified)” value ([1]; ADRA1B, other tracer 0.1μM) was 1.61. The “NanoBRET Fold Response, other tracers/XAC (unmodified)” value ([1]; ADRA1B, other tracer 1μM) was 1.32, the “NanoBRET Fold Response, other tracers/XAC (unmodified)” value ([1]; ADRA2A, other tracer 0.1μM) was 1.12 and the “NanoBRET Fold Response, other tracers/XAC (unmodified)” value ([1]; ADRA2A, other tracer 1μM) was 1.14. For the same compound, the “NanoBRET Fold Response, other tracers/XAC (unmodified)” value ([1]; ADRA2B, other tracer 0.1μM) was 4.34, the “NanoBRET Fold Response, other tracers/XAC (unmodified)” value ([1]; ADRA2B, other tracer 1μM) was 1.57 and the “NanoBRET Fold Response, other tracers/XAC (unmodified)” value ([1]; ADRA2C, other tracer 0.1μM) was 1.33.

With `CCCn1c(=O)c2[nH]c(-c3ccc(OCC(=O)NCCN)cc3)nc2n(CCC)c1=O` [XAC, Xanthine amine congener, reference compound] the “Interaction verified via competitive displacement of tracer” value [1] was “additional interactions”.
